Reference: US4479951A, “1.4;3.6-Dianhydrohexitol nitrates substituted by purine bases, processes for their preparation and pharmaceutical compositions” (Dr. Willmar Schwabe GmbH & Co., priority 1980, dated 1984)

Assays:
[1] = acute toxicity, p.o. and i.p. (footnote of Table VII); assay type: in vivo; conditions: mouse, in vivo, ip
[2] = tested on: mouse; experiment: as above; assay type: in vivo; conditions: p.o.
[3] = tested on: isolated rat aorta preparations; experiment: spasmolytic effectiveness, noradrenaline-induced contractions; conditions: read-out: ED50 noradrenaline spasm
[4] = tested on: mongrel cats; experiment: heart-circulation effectiveness on narcotised mongrel cats, intraduodenal administration; conditions: 5 mg/kg intraduodenal
Description: The animals were narcotised with a mixture of chloralose-urethane (1.2 g./kg. urethane+40 mg./kg. chloralose administered i.p.). They breathed spontaneously through a tracheal canula. The A. carotis sinistra was used in order to place a catheter tip monometer in the left chamber of the heart. The V. jugularis served for injection purposes. Via the A. femoralis dextra, a catheter was inserted up into the Aorta descendans and connected to a pressure recorder (Statham P 23Db). The heart frequency was recorded with a pulse frequency measurer (Firm Hugo Sachs Elektronik) from the left ventricular pressure signal. A duodenal loop was exposed by laparotomy. The substances to be tested were injected directly into the lumen.

[5] = printed on the 0 min line (= change 0 to 10 min)
[6] = printed on the 10 min line (= change 0 to 30 min)
[7] = printed on the 30 min line (= change 0 to 60 min)
[8] = printed on the 60 min line (= change 0 to 120 min)

SMILES: Nc1ncnc2c1ncn2[C@H]1CO[C@H]2[C@@H]1OC[C@@H]2O[N+](=O)[O-] [1c/2c, 5-(9-Adenyl)-5-desoxy-1.4;3.6-dianhydro-L-iditol 2-nitrate]
- LD50 [1]: 540 mg/kg
- LD70 p.o. mouse [2]: 1600 mg/kg
- IC50 [3]: 135 nM
- blood pressure ([4]; 0 min): 124.2 ± 8.3 mm. Hg
- dp/dt ([4]; 0 min): 7220 ± 611 mm sec
- heart frequency ([4]; 0 min): 171.6 ± 6.2 min⁻¹
- blood pressure ([4]; 10 min): 108.6 ± 8.5 mm. Hg
- dp/dt ([4]; 10 min): 7500 ± 522 mm sec
- heart frequency ([4]; 10 min): 180.4 ± 4.3 min⁻¹
- blood pressure ([4]; 30 min): 107.8 ± 8.4 mm. Hg
- dp/dt ([4]; 30 min): 6960 ± 564 mm sec
- heart frequency ([4]; 30 min): 177.2 ± 5.4 min⁻¹
- blood pressure ([4]; 60 min): 106.6 ± 7.8 mm. Hg
- dp/dt ([4]; 60 min): 7100 ± 721 mm sec
- heart frequency ([4]; 60 min): 177.6 ± 5.1 min⁻¹
- blood pressure ([4]; 120 min): 106.2 ± 5.6 mm. Hg
- dp/dt ([4]; 120 min): 7000 ± 1026 mm sec
- heart frequency ([4]; 120 min): 178.8 ± 4.4 min⁻¹
- blood pressure Δ [4, 5]: -15.6 mm. Hg
- dp/dt Δ [4, 5]: +280 mm sec
- blood pressure Δ [4, 6]: -16.4 mm. Hg
- dp/dt Δ [4, 6]: -260 mm sec
- blood pressure Δ [4, 7]: -17.6 mm. Hg
- dp/dt Δ [4, 7]: -120 mm sec
- blood pressure Δ [4, 8]: -18.0 mm. Hg
- dp/dt Δ [4, 8]: -220 mm sec
